Patent publication US10781214B2, “Kinase inhibitor against wild-type and mutant EGFR” (PRECEDO PHARMACEUTICALS CO., LTD, priority 2015, dated 2020)

Tests used:
Type in all cases: cell-based
[1] = test system: NCI-H1975 (expressing EGFR L858R/T790M double-mutant gene); test: Cancer cell growth, Cell Titer-Glo, 72 h: NCI-H1975; details: Homo sapiens; NCI-H1975 cells, 72 h; read-out: GI50
From the text: (§1) Compounds of the present invention were further evaluated for their selectivity in inhibiting proliferation of cancer cells by testing effects of the novel kinase inhibitors on proliferation of cancer cells. In the examples the following cells were selected: human non-small cell lung cancer cell NCI-H1975 (expressing EGFR L858R/T790M double-mutant gene), human-derived non-small cell lung cancer cell PC-9 (expressing EGFR delE746_A750 mutant gene), human-derived non-small cell lung cancer cell HCC827 (expressing EGFR delE746_A750 mutant gene), human lung adenocarcinoma cell HCC4006 (expressing EGFR delE746_A750 mutant gene), human non-small cell lung cancer cell NCI-H3255 (expressing EGFR L858R mutant gene), human skin squamous carcinoma cell A431 (expressing wild-type EGFR gene), human non-small cell lung cancer cell A549 (expressing wild-type EGFR gene), human non-small cell lung cancer cell NCI-H460 (expressing wild-type EGFR gene), human non-small cell lung cancer cell NCI-H2122 (expressing wild-type EGFR gene), Chinese hamster ovary (CHO) cell (Cricetulus griseus, hamster, Chinese, ovary), Chinese hamster lung cell (CHL), mouse pro-B cell BaF3. The cells above were all purchased from (USA).
(§2) The cells were incubated for 72 h, and then the number of viable cells was determined via quantitative determination with a microplate reader by using Cell Titer-Glo® (Promega, the USA) Luminescent Cell Viability Assay kit.

[2] = test system: PC-9 (expressing EGFR delE746_A750 mutant gene); test: Cancer cell growth, Cell Titer-Glo, 72 h: PC-9; details: Homo sapiens; PC-9 cells, 72 h; read-out: GI50
From the text: as §1, §2

[3] = test system: HCC827 (expressing EGFR delE746_A750 mutant gene); test: Cancer cell growth, Cell Titer-Glo, 72 h: HCC827; details: Homo sapiens; HCC827 cells, 72 h; read-out: GI50
From the text: as §1, §2

[4] = test system: NCI-H3255 (expressing EGFR L858R mutant gene); test: Cancer cell growth, Cell Titer-Glo, 72 h: NCI-H3255; details: Homo sapiens; NCI-H3255 cells, 72 h; read-out: GI50
From the text: as §1, §2

[5] = test system: A549 (expressing wild-type EGFR gene); test: Cancer cell growth, Cell Titer-Glo, 72 h: A549; details: Homo sapiens; A549 cells, 72 h; read-out: GI50
From the text: as §1, §2

mouse pro-B cell BaF3 = test: Cell growth, Cell Titer-Glo, 72 h: BaF3; details: BaF3 cells, 72 h, read-out: GI50
From the text: as §1, §2

[6] = test system: BaF3-FL-EGFR-T790M-L858R (stably expressing EGFR T790M/L858R mutant kinase); test: Cell growth, Cell Titer-Glo, 72 h: BaF3-FL-EGFR-T790M-L858R; details: Mus musculus, BaF3-FL-EGFR-T790M-L858R cells
From the text: (§3) In addition, this example further uses: mouse BaF3-TEL-EGFR (stably expressing wild-type EGFR kinase), mouse BaF3-TEL-EGFR-L858R (stably expressing EGFR L858R mutant kinase), mouse BaF3-TEL-EGFR-T790M (stably expressing EGFR T790M mutant kinase), mouse BaF3-FL-EGFR-DeI19 (stably expressing EGFR delE746_A750 mutant kinase), mouse BaF3-FL-EGFR-T790M-L858R (stably expressing EGFR T790M/L858R mutant kinase), mouse BaF3/P210 (stably expressing bcr/abl˜(P210) mutant kinase), mouse BaF3-TEL-ABL-T315I (stably expressing ABLT315I mutant kinase), mouse BaF3-FLT3-ITD (stably expressing FLT3/ITD mutant kinase), mouse BaF3-TEL-JAK2 (stably expressing JAK2 kinase), mouse BaF3-TEL-JAK3 (stably expressing JAK3 kinase), mouse BaF3-TPR-MET (stably expressing MET kinase), mouse BaF3-TEL-BLK (stably expressing BLK kinase), mouse BaF3-TEL-ABL (stably expressing ABL kinase), mouse BaF3-TEL-BMX (stably expressing BMX kinase), mouse BaF3-TEL-ALK (stably expressing ALK kinase). The above cell lines were all constructed by our laboratory according to the following method: the kinase region sequences of human […], EGFR L858R, EGFR T790M, EGFR delE746_A750, EGFR T790M/L858R, bcr/abl˜(P210), ABL T315I, FLT3/ITD, JAK2, JAK3, MET, BLK, ABL, BMX, ALK were amplified respectively by PCR, inserted respectively into MSCV-Puro vectors harboring N-terminal fragment and/or NPM fragment and/or TPR fragment (Clontech), then the vectors were stably transfected into mouse BaF3 cells by retrovirus methods and growth factor IL-3 was removed, eventually obtaining cell lines that are transferred protein (EGFR, EGFR L858R, EGFR T790M, EGFR delE746_A750, EGFR T790M/L858R, bcr/abl˜(P210), ABL T315I, FLT3/ITD, JAK2, JAK3, MET, BLK, ABL, BMX, ALK)-dependent.
as §2

[7] = test system: BaF3-TEL-EGFR (stably expressing wild-type EGFR kinase); test: Cell growth, Cell Titer-Glo, 72 h: BaF3-TEL-EGFR; details: Mus musculus, BaF3-TEL-EGFR cells, read-out: GI50
From the text: as §3, §2

[8] = test system: A431 (expressing wild-type EGFR gene); test: Cancer cell growth, Cell Titer-Glo, 72 h: A431; details: Homo sapiens, A-431; A431 cells, 72 h; read-out: GI50
From the text: as §1, §2

| SMILES | GI50 [1] [µM] | GI50 [2] [µM] | GI50 [3] [µM] | GI50 [4] [µM] | GI50 [5] [µM] | GI50 (mouse pro-B cell BaF3) [µM] | GI50 [6] [µM] | GI50 [7] [µM] | GI50 [8] [µM] |
| --- | --- | --- | --- | --- | --- | --- | --- | --- | --- |
| C=CC(=O)N1CCC[C@@H](n2nc(-c3ccc(OCc4cccc(F)c4)c(OC)c3)c3c(N)ncnc32)C1 [Compound 8] | 0.35 | 0.025 | 0.084 | 0.056 | 2.7 | > 10 | 0.043 | – | – |
| C=CC(=O)N1CCC[C@@H](n2nc(-c3ccc(OCc4cccc(F)c4)c(C)c3)c3c(N)ncnc32)C1 [Compound 14, (R)-1-(3-(4-amino-3-(3-methyl-4-((3-fluorobenzyl)oxy)phenyl)-1H-pyrazolo[3,4-d]pyrimidin-1-yl)piperidin-1-yl)prop-2-en-1-one] | 0.038 | 0.016 | – | 0.009 | – | 2.5 | < 0.0003 | 1.4 | – |
| C=CC(=O)N1CCC[C@@H](n2nc(-c3ccc(OCc4cccc(F)c4)c(C#N)c3)c3c(N)ncnc32)C1 [Compound 16, (R)-1-(3-(4-amino-3-(3-cyano-4-((3-fluorobenzyl)oxy)phenyl)-1H-pyrazolo[3,4-d]pyrimidin-1-yl)piperidin-1-yl)prop-2-en-1-one] | – | 0.051 | – | 0.028 | – | > 10 | 0.052 | > 10 | – |
| C=CC(=O)N1CCC[C@@H](n2nc(-c3ccc(OCc4cccc(F)c4)nc3)c3c(N)ncnc32)C1 [Compound 19, (R)-1-(3-(4-amino-3-(6-((3-fluorobenzyl)oxy)pyridin-3-yl)-1H-pyrazolo[3,4-d]pyrimidin-1-yl)piperidin-1-yl)prop-2-en-1-one] | > 10 | > 10 | – | > 10 | – | > 10 | – | – | – |
| C=CC(=O)N1CCC[C@@H](n2nc(-c3ccc(OCc4cc(F)ccc4F)c(Cl)c3)c3c(N)ncnc32)C1 [Compound 23, (R)-1-(3-(4-amino-3-(3-chloro-4-((2,5-difluorobenzyl)oxy)phenyl)-1H-pyrazolo[3,4-d]pyrimidin-1-yl)piperidin-1-yl)prop-2-en-1-one] | 0.007 | 0.007 | – | < 0.0003 | 3.8 | 4.3 | < 0.0003 | – | – |
| C=CC(=O)N1CCC[C@@H](n2nc(-c3ccc(OCc4nccs4)c(Cl)c3)c3c(N)ncnc32)C1 [Compound 28, (R)-1-(3-(4-amino-3-(3-chloro-4-(thiazol-2-ylmethoxy)phenyl)-1H-pyrazolo[3,4-d]pyrimidin-1-yl)piperidin-1-yl)prop-2-en-1-one] | 0.008 | 0.01 | – | < 0.0003 | > 10 | 9.8 | 0.002 | 2.8 | > 10 |
| C=CC(=O)N1CCC[C@@H](n2nc(-c3ccc(OCc4ccc(C)nc4)c(Cl)c3)c3c(N)ncnc32)C1 [Compound 30, (R)-1-(3-(4-amino-3-(3-chloro-4-((6-methylpyridin-3-yl)methoxy)phenyl)-1H-pyrazolo[3,4-d]pyrimidin-1-yl)piperidin-1-yl)prop-2-en-1-one] | 0.003 | 0.038 | – | 0.036 | > 10 | > 10 | 0.002 | 3.3 | > 10 |
| CN(C)C/C=C/C(=O)N1CCC[C@@H](n2nc(-c3ccc(F)c(Cl)c3)c3c(N)ncnc32)C1 [Compound 32, (R)-1-(3-(4-amino-3-(3-chloro-4-flurophenyl)-1H-pyrazolo[3,4-d]pyrimidin-1-yl)piperidin-1-yl)-4-(dimethylamino)but-2-en-1-one] | 0.71 | 0.17 | – | 0.33 | > 10 | 4.5 | 0.13 | 0.69 | 3.9 |
| C=CC(=O)N1CCC[C@@H](n2nc(-c3ccc(OCc4ncc(C)c(OC)c4C)c(Cl)c3)c3c(N)ncnc32)C1 [Compound 36, (R)-1-(3-(4-amino-3-(3-chloro-4-((4-methoxy-3,5-dimethylpyridin-2-yl)methoxy)phenyl)-1H-pyrazolo[3,4-d]pyrimidin-1-yl)piperidin-1-yl)prop-2-en-1-one] | < 0.0003 | 0.024 | – | 0.044 | 3.4 | > 10 | < 0.0003 | 3.5 | > 10 |

The remaining lines, values ahead:

| GI50 [1] [µM] | GI50 [2] [µM] | GI50 [3] [µM] | GI50 [4] [µM] | GI50 [5] [µM] | GI50 (mouse pro-B cell BaF3) [µM] | GI50 [6] [µM] | GI50 [7] [µM] | GI50 [8] [µM] | SMILES |
| --- | --- | --- | --- | --- | --- | --- | --- | --- | --- |
| – | 0.014 | – | 0.02 | – | 8.5 | 0.001 | 4.2 | – | C=CC(=O)N1CCC[C@@H](n2nc(-c3ccc(OCc4ccccc4F)c(Cl)c3)c3c(N)ncnc32)C1 [Compound 18, (R)-1-(3-(4-amino-3-(3-chloro-4-((2-fluorobenzyl)oxy)phenyl)-1H-pyrazolo[3,4-d]pyrimidin-1-yl)piperidin-1-yl)prop-2-en-1-one] |
| > 10 | 7 | – | 4.9 | > 10 | > 10 | > 10 | – | – | C=CC(=O)N1CCC[C@@H](n2nc(-c3ccc(CN4CCN(C)CC4)cc3)c3c(N)ncnc32)C1 [Compound 20] |
| 1.6 | 0.006 | – | < 0.0003 | > 10 | 1.9 | < 0.0003 | – | – | C=CC(=O)N1CCC[C@@H](n2nc(-c3ccc(OCc4cccc(F)c4)cc3F)c3c(N)ncnc32)C1 [Compound 24, (R)-1-(3-(4-amino-3-(2-fluoro-4-((3-fluorobenzyl)oxy)phenyl)-1H-pyrazolo[3,4-d]pyrimidin-1-yl)piperidin-1-yl)prop-2-en-1-one] |
| 0.095 | 0.009 | – | 0.043 | > 10 | > 10 | 0.053 | 2.2 | > 10 | C=CC(=O)N1CCC[C@@H](n2nc(-c3ccc(F)c(Cl)c3)c3c(N)ncnc32)C1 [Compound 31, (R)-1-(3-(4-amino-3-(3-chloro-4-flurophenyl)-1H-pyrazolo[3,4-d]pyrimidin-1-yl)piperidin-1-yl)prop-2-en-1-one] |
| 0.056 | 0.18 | – | 0.046 | 3.1 | > 10 | < 0.0003 | 3.6 | > 10 | C=CC(=O)N1CCC[C@@H](n2nc(-c3ccc(OCc4ccccn4)c(C(F)(F)F)c3)c3c(N)ncnc32)C1 [Compound 35, (R)-1-(3-(4-amino-3-(3-trifluoromethyl-4-(pyridin-2-ylmethoxy)phenyl)-1H-pyrazolo[3,4-d]pyrimidin-1-yl)piperidin-1-yl)prop-2-en-1-one] |
| 5.1 | 1.7 | – | 3.8 | 2.8 | 4.6 | – | 6.6 | 8.7 | C=CC(=O)Nc1cc(Cn2nc(-c3ccc(F)c(Cl)c3)c3c(N)ncnc32)ccc1F [Compound 38] |
